This assay addresses T1, BACE2 (Homo sapiens, UniProt Q9Y5Z0).
T1 construct: BACE2 enzyme ectodomain (derived from plasmid “pET17b-T7-hu proBACE2”) was prepared as described in Ostermann et al; T7 tag (N); made in house
T1 sequence (Q9Y5Z0 21-473 limits assumed): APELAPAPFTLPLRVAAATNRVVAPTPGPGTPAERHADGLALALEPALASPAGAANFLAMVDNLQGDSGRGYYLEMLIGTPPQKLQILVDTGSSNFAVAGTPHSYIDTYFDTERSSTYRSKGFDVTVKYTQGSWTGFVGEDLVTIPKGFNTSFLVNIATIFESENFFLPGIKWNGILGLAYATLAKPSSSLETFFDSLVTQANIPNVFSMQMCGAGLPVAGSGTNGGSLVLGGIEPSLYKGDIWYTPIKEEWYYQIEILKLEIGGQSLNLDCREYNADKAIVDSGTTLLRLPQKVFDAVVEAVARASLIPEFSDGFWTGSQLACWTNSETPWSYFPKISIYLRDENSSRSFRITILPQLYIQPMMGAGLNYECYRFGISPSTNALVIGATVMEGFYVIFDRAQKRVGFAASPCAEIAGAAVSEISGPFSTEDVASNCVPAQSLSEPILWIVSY
In words: Fluorescent-peptide cleavage assay for BACE2 inhibition. The class given is biochemical. Conditions: BACE2 enzyme ectodomain, fluorescent peptide WS EVNLD AEFRC-MR121, assay buffer pH 4.5, room temperature. How it is done: Fluorescent-Peptide Cleavage Assay for BACE2 Inhibition
The pro-enzyme was stored at 4° C. at a concentration of 70 μg/ml.
A fluorescent peptide with the amino acid sequence WS EVNLD AEFRC-MR121 was synthesised and a stock solution of 1.5 mM in DMSO prepared and stored at −20° C. MR121 is a fluorophore with an excitation wavelength of 630 nm and emission wavelength of 695 nm. The MR121 fluorescence is quenched by the N-terminal tryptophan until the peptide is cleaved by BACE2.
Assays were all made in a Corning 384-well black polystyrene non-binding surface microtitre plate with clear flat bottom and using a Plate:Vision (Perkin Elmer) fluorescence reader. To perform the assay an 80 nM solution of BACE2 was prepared in assay buffer (assay buffer is 100 mM Na-acetate; 20 mM EDTA; 0.05% BSA; pH 4.5) and incubated at room temperature for 1 hour to activate the enzyme. 39 μl of the activated BACE2 was placed in each assay well, followed by 1 μl compound to be tested at an appropriate concentration in 100% DMSO. The plate was then mixed and incubated for 10 minutes at room temperature.
The assay readout is the rate of change of fluorescence intensity giving a relative measure of BACE2 activity. Small values correspond to high inhibition and larger values to low inhibition. […] IC50 values were determined using these assay values generated for a range of inhibitor concentrations and the curve fitting software XLfit (IDBS) using the Sigmoidal Dose-Response Model.

This passage reports IC50 results from US8461160B2, “Dihydropyrimidinones” (Hoffmann-La Roche, Inc., priority 2009, dated 2013).

One may read the IC50 as the midpoint of a concentration-inhibition curve. Low readings indicate greater potency, high ones weaker potency.

Take `Cc1ccc(C(=O)Nc2cccc([C@]3(C)CC(=O)N(C)C(N)=N3)c2)nc1` [Example 12, 5-Methyl-pyridine-2-carboxylic acid [3-((S)-2-amino-1,4-dimethyl-6-oxo-1,4,5,6-tetrahydro-pyrimidin-4-yl)-phenyl]amide]: the IC50 was 37 nM.

`CN1C(=O)C(C)(C)[C@@](C)(c2cccc(NC(=O)c3nccc4ccsc34)c2)N=C1N` [Example 96, Thieno[2,3-c]pyridine-7-carboxylic acid [3-((R)-2-amino-1,4,5,5-tetramethyl-6-oxo-1,4,5,6-tetrahydro-pyrimidin-4-yl)-phenyl]amide] showed an IC50 of 370 nM.

The molecule `CN1C(=O)C(C)(C)[C@@](C)(c2cccc(NC(=O)c3ncccc3-c3ccccc3Cl)c2)N=C1N` [Example 97, 3-(2-Chloro-phenyl)-pyridine-2-carboxylic acid [3-((R)-2-amino-1,4,5,5-tetramethyl-6-oxo-1,4,5,6-tetrahydro-pyrimidin-4-yl)-phenyl]amide] returned an IC50 of 180 nM.

Take `CN1C(=O)C[C@@](C)(c2cncc(NC(=O)c3ccc(Cl)cn3)c2)N=C1N` [Example 52, 5-Chloro-pyridine-2-carboxylic acid [5-((S)-2-amino-1,4-dimethyl-6-oxo-1,4,5,6-tetrahydro-pyrimidin-4-yl)-pyridin-3-yl]-amide]: half-maximal inhibition (IC50) was put at 11 nM.

Molecule `CN1C(=O)C[C@@](C)(c2cccc(NC(=O)c3nccc4ccsc34)c2)N=C1N` [Example 60, Thieno[2,3-c]pyridine-7-carboxylic acid [3-((S)-2-amino-1,4-dimethyl-6-oxo-1,4,5,6-tetrahydro-pyrimidin-4-yl)-phenyl]-amide] returned an IC50 of 240 nM.

On to `CN1C(=O)C(C)(C)[C@@](C)(c2cc(NC(=O)c3ncc(Cl)cn3)ccc2F)N=C1N` [Example 106, 5-Chloro-pyrimidine-2-carboxylic acid [3-((S)-2-amino-1,4,5,5-tetramethyl-6-oxo-1,4,5,6-tetrahydro-pyrimidin-4-yl)-4-fluoro-phenyl]amide], for which the IC50 came out at 28 nM.

The molecule `Cc1ccc(C(=O)Nc2cccc([C@]3(C)CC(=O)N(C)C(N)=N3)c2)s1` [Example 1, 5-Methyl-thiophene-2-carboxylic acid [3-((S)-2-amino-1,4-dimethyl-6-oxo-1,4,5,6-tetrahydro-pyrimidin-4-yl)-phenyl]-amide] gave an IC50 of 13 nM.

Take `CN1C(=O)C[C@]2(CCc3ccc(NC(=O)c4ccc(Cl)cn4)cc32)N=C1N` [Example 127, N-[(1S)-2′-amino-1′-methyl-6′-oxo-2,3,5′,6′-tetrahydro-1′H-spiro[indene-1,4′-pyrimidin]-6-yl]-5-chloropyridine-2-carboxamide]: the IC50 amounted to 160 nM.

In turn, `CN1C(=O)C[C@@](C)(c2cccc(NC(=O)c3cnc(Cl)cn3)c2)N=C1N` [Example 25, 5-Chloro-pyrazine-2-carboxylic acid [3-((S)-2-amino-1,4-dimethyl-6-oxo-1,4,5,6-tetrahydro-pyrimidin-4-yl)-phenyl]-amide] yielded an IC50 of 10 nM.

With `CN1C(=O)C[C@@](C)(c2cccc(NC(=O)c3ccc4ccccc4n3)c2)N=C1N` [Example 58, Quinoline-2-carboxylic acid [3-((S)-2-amino-1,4-dimethyl-6-oxo-1,4,5,6-tetrahydro-pyrimidin-4-yl)-phenyl]-amide], it took 410 nM to reach half-maximal inhibition (IC50).

As for `CC[C@@]1(c2cccc(NC(=O)c3ncc(Cl)cn3)c2)CC(=O)N(C)C(N)=N1` [Example 44, 5-Chloro-pyrimidine-2-carboxylic acid [3-((S)-2-amino-4-ethyl-1-methyl-6-oxo-1,4,5,6-tetrahydro-pyrimidin-4-yl)-phenyl]-amide], the IC50 was determined as 7 nM.

In turn, `CN1C(=O)C[C@@](C)(c2cccc(NC(=O)c3ccncc3)c2)N=C1N` [Example 26, N-[3-((S)-2-Amino-1,4-dimethyl-6-oxo-1,4,5,6-tetrahydro-pyrimidin-4-yl)-phenyl]-isonicotinamide] came in with an IC50 of 960 nM.

As for `Cc1nc(C(=O)Nc2cccc([C@]3(C)CC(=O)N(C)C(N)=N3)c2)cs1` [Example 67, 2-Methyl-thiazole-4-carboxylic acid [3-((S)-2-amino-1,4-dimethyl-6-oxo-1,4,5,6-tetrahydro-pyrimidin-4-yl)-phenyl]-amide], inhibition was half-maximal at 160 nM (IC50).

Consider `CN1C(=O)C(C)(C)[C@@](C)(c2cc(NC(=O)c3ccc(C#N)cn3)ccc2F)N=C1N` [Example 115, 5-Cyano-pyridine-2-carboxylic acid [3-((S)-2-amino-1,4,5,5-tetramethyl-6-oxo-1,4,5,6-tetrahydro-pyrimidin-4-yl)-4-fluoro-phenyl]amide], for which inhibition was half-maximal at 63 nM (IC50).

Regarding `CC[C@@]1(c2cccc(NC(=O)c3cccc(Cl)n3)c2)CC(=O)N(C)C(N)=N1` [Example 42, 6-Chloro-pyridine-2-carboxylic acid [3-((S)-2-amino-4-ethyl-1-methyl-6-oxo-1,4,5,6-tetrahydro-pyrimidin-4-yl)-phenyl]-amide], the IC50 came out at 125 nM.

Take `CN1C(=O)C[C@]2(CCc3ccc(NC(=O)c4ccc(OCC(F)(F)F)cn4)cc32)N=C1N` [Example 129, N-[(1S)-2′-amino-1′-methyl-6′-oxo-2,3,5′,6′-tetrahydro-1′H-spiro[indene-1,4′-pyrimidin]-6-yl]-5-(2,2,2-trifluoro-ethoxy)-pyridine-2-carboxamide]: the IC50 turned out to be 220 nM.

On to `CN1C(=O)C[C@@](C)(c2cccc(NC(=O)c3cc(Cl)ccn3)c2)N=C1N` [Example 29, 4-Chloro-pyridine-2-carboxylic acid [3-((S)-2-amino-1,4-dimethyl-6-oxo-1,4,5,6-tetrahydro-pyrimidin-4-yl)-phenyl]-amide], for which the IC50 worked out at 48 nM.

The molecule `COc1cccnc1C(=O)Nc1ccc(F)c([C@@]2(C)N=C(N)N(C)C(=O)C2(C)C)c1` [Example 104, 3-Methoxy-pyridine-2-carboxylic acid [3-((S)-2-amino-1,4,5,5-tetramethyl-6-oxo-1,4,5,6-tetrahydro-pyrimidin-4-yl)-4-fluoro-phenyl]amide] showed an IC50 of 150 nM.

Take `CN1C(=O)C[C@@](C)(c2cccc(NC(=O)c3ccc(=O)n(C)n3)c2)N=C1N` [Example 21, 1-Methyl-6-oxo-1,6-dihydro-pyridazine-3-carboxylic acid [3-((S)-2-amino-1,4-dimethyl-6-oxo-1,4,5,6-tetrahydro-pyrimidin-4-yl)-phenyl]amide]: half-maximal inhibition (IC50) required 4200 nM.

In turn, `Cc1cccnc1C(=O)Nc1ccc(F)c([C@@]2(C)N=C(N)N(C)C(=O)C2(C)C)c1` [Example 105, 3-Methyl-pyridine-2-carboxylic acid [3-((S)-2-amino-1,4,5,5-tetramethyl-6-oxo-1,4,5,6-tetrahydro-pyrimidin-4-yl)-4-fluoro-phenyl]amide] came in with an IC50 of 49 nM.

`CN1C(=O)C[C@@](C)(c2cccc(NC(=O)c3cccc(Cl)n3)c2)N=C1N` [Example 31, 6-Chloro-pyridine-2-carboxylic acid [3-((S)-2-amino-1,4-dimethyl-6-oxo-1,4,5,6-tetrahydro-pyrimidin-4-yl)-phenyl]-amide] displayed an IC50 of 30 nM.

Molecule `C[C@@]1(c2cccc(NC(=O)c3ccc(Cl)cn3)c2)CC(=O)NC(N)=N1` [Example 51, 5-Chloro-pyridine-2-carboxylic acid [3-((S)-2-amino-4-methyl-6-oxo-1,4,5,6-tetrahydro-pyrimidin-4-yl)-phenyl]amide] had an IC50 of 33 nM.

In turn, `CC[C@@]1(c2cccc(NC(=O)c3ncccc3Cl)c2)CC(=O)N(C)C(N)=N1` [Example 43, 3-Chloro-pyridine-2-carboxylic acid [3-((S)-2-amino-4-ethyl-1-methyl-6-oxo-1,4,5,6-tetrahydro-pyrimidin-4-yl)-phenyl]-amide] had an IC50 of 87 nM.

With `CN1C(=O)C(C)(C)[C@@](C)(c2cc(NC(=O)c3ccc(F)cn3)ccc2F)N=C1N` [Example 114, 5-Fluoro-pyridine-2-carboxylic acid [3-((S)-2-amino-1,4,5,5-tetramethyl-6-oxo-1,4,5,6-tetrahydro-pyrimidin-4-yl)-4-fluoro-phenyl]amide], inhibition was half-maximal at 43 nM (IC50).

`CN1C(=O)C(C)(C)[C@@](C)(c2cc(NC(=O)c3ncco3)ccc2F)N=C1N` [Example 117, Oxazole-2-carboxylic acid [3-((S)-2-amino-1,4,5,5-tetramethyl-6-oxo-1,4,5,6-tetrahydro-pyrimidin-4-yl)-4-fluoro-phenyl]amide] came in with an IC50 of 230 nM.
